Laboratory results: patent US10206399B2, “Herbicidal composition comprising uracil compound as active ingredient” (Dongbu Farm Hannong Co., Ltd., priority 2012, dated 2019)
Read-outs that look alike come from different tables or passages of the source.

Tests used:
[1] = system: Echinochloa crus; conditions: for Echinochloa crus mortality, measured value: 20 days after treatment; for plant mortality, measured value: Echinochloa crus
From the text: (§1) X is % damage by uracil compound (a) of formula 1 at the rate of application of p kg/ha; Y is % damage by conventional herbicidal compound (b) at the rate of application of q kg/ha; and E is the expected damage caused by compounds (a) and (b) at a rate of application of p and q kg/ha.
(§2) The expected activity for a given combination of two herbicides can be calculated using equation 1 above.

[2] = system: Abutilon theophrasti; experiment: Dry field farming herbicidal composition test, plant mortality; assay type: in vivo; conditions: Abutilon theophrasti, read-out: Abutilon theophrasti mortality, measured value
From the text: as §1, §2

[3] = system: Echinochloa crus; experiment: Paddy field farming herbicidal composition test, plant mortality; assay type: in vivo; conditions: Echinochloa; 5 g/ha; read-out: Echinochloa crus mortality (measured value)
From the text: as §1, §2

[4] = system: wheat; experiment: Dry field farming herbicidal composition test, plant mortality (crop)
From the text: as §1, §2

[5] = system: Xanthium spinosum; experiment: whole plant or invertebrate
From the text: as §1, §2

[6] = system: Ludwigia prostrate; experiment: Paddy field farming herbicidal composition test, plant mortality; assay type: in vivo
From the text: as §1, §2

[7] = system: wild amaranth; experiment: Nonselective composition of 1 uracil compound and 2 herbicidally active compounds, plant mortality; assay type: in vivo; conditions: Amaranthus caudatus, 480 h; 8 g ai/ha; read-out: Wild amaranth mortality (measured value)
From the text: as §1, §2

[8] = system: Aeschynomene indica; experiment: Dry field farming herbicidal composition test, plant mortality; assay type: in vivo
From the text: as §1, §2

[9] = system: corn
[10] = system: ryegrass; experiment: Nonselective composition of 1 uracil compound and 2 herbicidally active compounds, plant mortality; assay type: in vivo; conditions: 480 h; 8 g ai/ha; read-out: ryegrass mortality (measured value)
From the text: as §1, §2

[11] = system: Abutilon theophrasti; experiment: whole plant or invertebrate
From the text: as §1, §2

[12] = system: Digitaria sanguinalis; conditions: for Digitaria sanguinalis mortality, measured value: 20 days after treatment
From the text: as §1, §2

[13] = system: Digitaria sanguinalis; experiment: Dry field farming herbicidal composition test, plant mortality; assay type: in vivo
From the text: as §1, §2

[14] = system: Monochoria vaginalis; experiment: Paddy field farming herbicidal composition test, plant mortality; assay type: in vivo; conditions: Pontederia vaginalis, read-out: Monochoria vaginalis mortality (measured value)
From the text: as §1, §2

[15] = system: Capsella bursapastoris; experiment: Dry field farming herbicidal composition test, plant mortality; assay type: in vivo; conditions: in % (unit assumed)
From the text: as §1, §2

[16] = system: Porippa islandica; experiment: as above; assay type: in vivo
From the text: as §1, §2

[17] = system: rice plant; experiment: Paddy field farming herbicidal composition test, plant mortality (crop)
From the text: as §1, §2

[18] = system: Alopecurus aequalis; experiment: Dry field farming herbicidal composition test, plant mortality; assay type: in vivo; conditions: in % (unit assumed)
From the text: as §1, §2

[19] = system: Echinochloa crus; experiment: as above; assay type: in vivo
From the text: as §1, §2

[20] = system: Lamium amplexicaule; experiment: as above; assay type: in vivo; conditions: in % (unit assumed)
From the text: as §1, §2

[21] = system: Aeschynomene indica; experiment: whole plant or invertebrate
From the text: as §1, §2

[22] = 480 h, read-out: Xanthium spinosum mortality, measured value
[23] = read-out: plant mortality, measured value, 4 g/ha
[24] = read-out: plant mortality, measured value, 8 g/ha
[25] = read-out: plant mortality, measured value, 16 g/ha
[26] = 480 h, read-out: Abutilon theophrasti mortality, measured value
[27] = 480 h, read-out: Aeschynomene indica mortality, measured value

COC(=O)CCNC(=O)C(C)Sc1cc(-n2c(=O)cc(C(F)(F)F)n(C)c2=O)c(F)cc1Cl (stereo not drawn) [Compound 36, 3-[{2-[2-chloro-5-(3,6-dihydro-3-methyl-2,6-dioxo-4-trifluoromethyl-1(2H)-pyrimidinyl)-4-fluorophenylthio]-1-oxopropyl}amino]propionic acid methyl ester]
Data (measured value) Echinochloa crus ([1]; 4 g/ha): 0 | Echinochloa crus mortality, measured value ([1]; 4 g/ha): 0% | plant mortality, measured value ([1]; 4 g/ha): 0 | Data (measured value) Echinochloa crus ([1]; 8 g/ha): 5 | Echinochloa crus mortality, measured value ([1]; 8 g/ha): 5% | plant mortality, measured value ([1]; 8 g/ha): 5 | Echinochloa crus mortality, measured value ([1]; 16 g/ha): 10% | Data (measured value) Echinochloa crus ([1]; 20 g/ha): 17 | Echinochloa crus mortality, measured value ([1]; 20 g/ha): 17% | Data (measured value) Echinochloa crus ([1]; 40 g/ha): 37 | Echinochloa crus mortality, measured value ([1]; 40 g/ha): 37% | Data (measured value) Echinochloa crus ([1]; 80 g/ha): 61 | Echinochloa crus mortality, measured value ([1]; 80 g/ha): 61% | pest or weed control at 1 g/ha ([2]; 1 g/ha): 15% | pest or weed control at 2 g/ha ([2]; 2 g/ha): 35% | pest or weed control at 4 g/ha ([2]; 4 g/ha): 50% | pest or weed control at 5 g/ha [3]: 0% | Wheat mortality, measured value ([4]; 1 g/ha): 0 | Wheat mortality, measured value ([4]; 2 g/ha): 0 | Wheat mortality, measured value ([4]; 4 g/ha): 1 | mortality at 4 g/ha [5, 22]: 21% | mortality at 8 g/ha [5, 22]: 42% | mortality at 16 g/ha [5, 22]: 56% | mortality at 20 g/ha [5, 22]: 51% | mortality at 40 g/ha [5, 22]: 90% | mortality at 80 g/ha [5, 22]: 100% | pest or weed control at 4 g/ha ([5]; read-out: Data (measured value) Xanthium spinosum, 4 g/ha): 24% | pest or weed control at 8 g/ha ([5]; read-out: Data (measured value) Xanthium spinosum, 8 g/ha): 59% | pest or weed control at 16 g/ha ([5]; read-out: Data (measured value) Xanthium spinosum, 16 g/ha): 79% | pest or weed control at 20 g/ha ([5]; read-out: Data (measured value) Xanthium spinosum, 20 g/ha): 51% | pest or weed control at 40 g/ha ([5]; read-out: Data (measured value) Xanthium spinosum, 40 g/ha): 90% | pest or weed control at 80 g/ha ([5]; read-out: Data (measured value) Xanthium spinosum, 80 g/ha): 100% | pest or weed control at 4 g/ha [5, 23]: 25% | pest or weed control at 8 g/ha [5, 24]: 50% | pest or weed control at 16 g/ha [5, 25]: 70% | Ludwigia prostrate mortality (measured value) ([6]; 5 g/ha): 35% | Ludwigia prostrate mortality (measured value) ([6]; 10 g/ha): 55% | pest or weed control at 8 g/ha [7]: 40% | Aeschynomene indica mortality, measured value ([8]; 1 g/ha): 10% | Aeschynomene indica mortality, measured value ([8]; 4 g/ha): 45% | pest or weed control at 1 g/ha ([8]; Aeschynomene indica, 1 g/ha, read-out: Aeschynomene indica mortality, measured value): 10% | pest or weed control at 2 g/ha ([8]; Aeschynomene indica, 2 g/ha, read-out: Aeschynomene indica mortality, measured value): 25% | pest or weed control at 4 g/ha ([8]; Aeschynomene indica, 4 g/ha, read-out: Aeschynomene indica mortality, measured value): 45% | Corn mortality, measured value ([9]; 1 g/ha): 0 | Corn mortality, measured value ([9]; 2 g/ha): 0 | Corn mortality, measured value ([9]; 4 g/ha): 1 | pest or weed control at 8 g/ha [10]: 30% | mortality at 4 g/ha [11, 26]: 11% | mortality at 8 g/ha [11, 26]: 38% | mortality at 16 g/ha [11, 26]: 51% | mortality at 20 g/ha [11, 26]: 58% | mortality at 40 g/ha [11, 26]: 100% | mortality at 80 g/ha [11, 26]: 100% | pest or weed control at 4 g/ha ([11]; read-out: Data (measured value) Abutilon theophrasti, 4 g/ha): 15% | pest or weed control at 8 g/ha ([11]; read-out: Data (measured value) Abutilon theophrasti, 8 g/ha): 35% | pest or weed control at 16 g/ha ([11]; read-out: Data (measured value) Abutilon theophrasti, 16 g/ha): 47% | pest or weed control at 20 g/ha ([11]; read-out: Data (measured value) Abutilon theophrasti, 20 g/ha): 58% | pest or weed control at 40 g/ha ([11]; read-out: Data (measured value) Abutilon theophrasti, 40 g/ha): 100% | pest or weed control at 80 g/ha ([11]; read-out: Data (measured value) Abutilon theophrasti, 80 g/ha): 100% | Data (measured value) Digitaria sanguinalis ([12]; 4 g/ha): 0 | Digitaria sanguinalis mortality, measured value ([12]; 4 g/ha): 0% | plant mortality, measured value ([12]; 4 g/ha, Digitaria sanguinalis): 0 | Digitaria sanguinalis mortality, measured value ([12]; 8 g/ha): 5% | Data (measured value) Digitaria sanguinalis ([12]; 16 g/ha): 15 | Digitaria sanguinalis mortality, measured value ([12]; 16 g/ha): 16% | Data (measured value) Digitaria sanguinalis ([12]; 20 g/ha): 19 | Digitaria sanguinalis mortality, measured value ([12]; 20 g/ha): 19% | Data (measured value) Digitaria sanguinalis ([12]; 40 g/ha): 43 | Digitaria sanguinalis mortality, measured value ([12]; 40 g/ha): 43% | Data (measured value) Digitaria sanguinalis ([12]; 80 g/ha): 71 | Digitaria sanguinalis mortality, measured value ([12]; 80 g/ha): 71% | Digitaria sanguinalis mortality, measured value ([13]; 4 g/ha): 10% | pest or weed control at 1 g/ha ([13]; Digitaria sanguinalis, 1 g/ha, read-out: Digitaria sanguinalis mortality, measured value): 0% | pest or weed control at 2 g/ha ([13]; Digitaria sanguinalis, 2 g/ha, read-out: Digitaria sanguinalis mortality, measured value): 0% | pest or weed control at 4 g/ha ([13]; Digitaria sanguinalis, 4 g/ha, read-out: Digitaria sanguinalis mortality, measured value): 10% | pest or weed control at […] ([14]; 2.5 g/ha): 5% | pest or weed control at 5 g/ha ([14]; 5 g/ha): 30% | pest or weed control at 10 g/ha ([14]; 10 g/ha): 50% | Capsella bursapastoris mortality, measured value ([15]; 1 g/ha): 5 | Capsella bursapastoris mortality, measured value ([15]; 2 g/ha): 25 | Capsella bursapastoris mortality, measured value ([15]; 4 g/ha): 45 | Porippa islandica mortality, measured value ([16]; 1 g/ha): 10 | Porippa islandica mortality, measured value ([16]; 2 g/ha): 30 | Porippa islandica mortality, measured value ([16]; 4 g/ha): 55 | Rice plant mortality (measured value) ([17]; 5 g/ha): 0 | Rice plant mortality (measured value) ([17]; 10 g/ha): 1 | Alopecurus aequalis mortality, measured value ([18]; 1 g/ha): 0 | Alopecurus aequalis mortality, measured value ([18]; 2 g/ha): 0 | Alopecurus aequalis mortality, measured value ([18]; 4 g/ha): 10 | Echinochloa crus mortality, measured value ([19]; 4 g/ha): 5% | pest or weed control at 1 g/ha ([19]; Echinochloa, 1 g/ha, read-out: Echinochloa crus mortality, measured value): 0% | pest or weed control at 2 g/ha ([19]; Echinochloa, 2 g/ha, read-out: Echinochloa crus mortality, measured value): 0% | pest or weed control at 4 g/ha ([19]; Echinochloa, 4 g/ha, read-out: Echinochloa crus mortality, measured value): 5% | Lamium amplexicaule mortality, measured value ([20]; 1 g/ha): 10 | Lamium amplexicaule mortality, measured value ([20]; 2 g/ha): 30 | Lamium amplexicaule mortality, measured value ([20]; 4 g/ha): 50 | mortality at 4 g/ha [21, 27]: 26% | mortality at 8 g/ha [21, 27]: 52% | mortality at 16 g/ha [21, 27]: 69% | mortality at 20 g/ha [21, 27]: 56% | mortality at 40 g/ha [21, 27]: 100% | mortality at 80 g/ha [21, 27]: 100% | pest or weed control at 4 g/ha ([21]; read-out: Data (measured value) Aeschynomene indica, 4 g/ha): 19% | pest or weed control at 8 g/ha ([21]; read-out: Data (measured value) Aeschynomene indica, 8 g/ha): 46% | pest or weed control at 16 g/ha ([21]; read-out: Data (measured value) Aeschynomene indica, 16 g/ha): 61% | pest or weed control at 20 g/ha ([21]; read-out: Data (measured value) Aeschynomene indica, 20 g/ha): 56% | pest or weed control at 40 g/ha ([21]; read-out: Data (measured value) Aeschynomene indica, 40 g/ha): 100% | pest or weed control at 80 g/ha ([21]; read-out: Data (measured value) Aeschynomene indica, 80 g/ha): 100% | pest or weed control at 4 g/ha [21, 23]: 20% | pest or weed control at 8 g/ha [21, 24]: 45% | pest or weed control at 16 g/ha [21, 25]: 65%
